Patent US20100004284A1, “Novel Heterocyclic Compounds as Positive Allosteric Modulators of Metabotropic Glutamate Receptors” (ADDEX PHARMA SA, priority 2005, published 2010)

Key:
rat mGluR5 = molecular target: T1, rat mGluR5 (Rattus norvegicus, UniProt P31424); experiment: mGluR5 assay on HEK-expressing rat mGluR5 (fluorescent cell based Ca2+ mobilization assay); conditions: HEK-293 cells stably expressing rat mGluR5; no co-addition of glutamate; mean of at least three independent experiments in duplicate; read-out: Ca++ Flux (mean EC50)
T1 construct: expressed in transfected cells
T1 sequence (P31424 21-1171 isoform P31424-2 limits assumed): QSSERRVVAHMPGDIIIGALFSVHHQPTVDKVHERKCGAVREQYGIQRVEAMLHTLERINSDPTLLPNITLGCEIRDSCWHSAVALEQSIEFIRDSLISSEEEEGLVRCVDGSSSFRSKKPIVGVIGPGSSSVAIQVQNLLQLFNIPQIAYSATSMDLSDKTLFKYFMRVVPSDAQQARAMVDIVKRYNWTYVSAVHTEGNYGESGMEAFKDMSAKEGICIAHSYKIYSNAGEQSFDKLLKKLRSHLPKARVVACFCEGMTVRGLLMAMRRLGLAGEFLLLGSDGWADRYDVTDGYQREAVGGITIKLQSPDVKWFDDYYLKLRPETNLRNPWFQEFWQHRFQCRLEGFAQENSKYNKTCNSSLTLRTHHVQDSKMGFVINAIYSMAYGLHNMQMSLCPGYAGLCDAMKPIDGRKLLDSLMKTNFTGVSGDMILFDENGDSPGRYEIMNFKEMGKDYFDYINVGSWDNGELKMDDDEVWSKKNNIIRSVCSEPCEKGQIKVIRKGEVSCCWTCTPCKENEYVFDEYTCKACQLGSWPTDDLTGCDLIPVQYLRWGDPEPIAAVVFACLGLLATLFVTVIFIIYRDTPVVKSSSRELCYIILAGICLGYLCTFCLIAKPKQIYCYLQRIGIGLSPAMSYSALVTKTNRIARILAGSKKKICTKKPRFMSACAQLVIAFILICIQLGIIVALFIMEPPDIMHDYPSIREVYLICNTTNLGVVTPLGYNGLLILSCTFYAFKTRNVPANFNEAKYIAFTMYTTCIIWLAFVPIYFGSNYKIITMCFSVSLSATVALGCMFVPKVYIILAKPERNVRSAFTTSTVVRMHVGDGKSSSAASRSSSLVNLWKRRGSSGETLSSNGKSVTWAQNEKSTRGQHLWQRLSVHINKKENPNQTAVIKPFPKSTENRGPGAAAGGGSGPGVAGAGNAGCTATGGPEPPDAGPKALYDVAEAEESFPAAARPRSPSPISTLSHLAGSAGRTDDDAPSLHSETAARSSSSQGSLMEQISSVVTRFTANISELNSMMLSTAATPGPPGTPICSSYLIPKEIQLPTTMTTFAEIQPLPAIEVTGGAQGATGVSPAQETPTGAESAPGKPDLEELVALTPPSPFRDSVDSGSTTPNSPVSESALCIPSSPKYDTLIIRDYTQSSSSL
Description: Positive functional expression of HEK-293 cells stably expressing rat mGluR5 receptor was determined by measuring intracellular Ca^2+ changes using a Fluorometric Imaging Plate Reader (FLIPR, Molecular Devices, Sunnyvale, Calif.) in response to glutamate or selective known mGluR5 agonists and antagonists. Rat mGluR5RT-PCR products in HEK-293 cells were sequenced and found 100% identical to rat mGluR5Genbank reference sequence (NM_017012). HEK-293 cells expressing rmGluR5 were maintained in media containing DMEM, dialyzed Fetal Bovine Serum (10%), Glutamax™ (2 mM), Penicillin (100 units/ml), Streptomycin (100 μg/ml), Geneticin (100 μg/ml) and Hygromycin-B (40 μg/ml) at 37° C./5% CO2.
After one day of incubation, cells were washed with assay buffer containing: 142 mM NaCl, 6 mM KCl, 1 mM […], 1 mM CaCl2, 20 mM HEPES, 1 g/L glucose, 0.125 mM sulfinpyrazone, pH 7.4. After 60 min of loading with 4 uM Fluo-4 (TefLabs, Austin, Tex.), the cells were washed three times with 50 μl of PBS Buffer and resuspended in 45 μl of assay Buffer. The plates were then transferred to a Fluorometric Imaging Plate Reader (FLIPR, Molecular Devices, Sunnyvale, Calif.) for the assessment of intracellular calcium flux. After monitoring the baseline fluorescence for 10 seconds, increasing concentrations of representative compound (from 0.01 to 60 μM) of the present invention diluted in Assay Buffer (15 μl of 4× dilutions) was added to the cell. The final DMSO concentration in the assay was 0.3%. In each experiment, fluorescence was then monitored as a function of time for 3 minutes and the data analyzed using Microsoft Excel and GraphPad Prism. Each data point was also measured two times.
Under these experimental conditions, this HEK-rat mGluR5 cell line is able to directly detect positive allosteric modulators without the need of co-addition of glutamate or mGluR5 agonist.
The concentration-response curves of representative compounds of the present invention were generated using the Prism GraphPad software (Graph Pad Inc, San Diego, USA). The curves were fitted to a four-parameter logistic equation:
(Y=Bottom+(Top−Bottom)/(1+10̂((Log EC50−X)*Hill Slope)
allowing determination of EC50 values.
The Table 5 below represents the mean EC50 obtained from at least three independent experiments of selected molecules performed in duplicate.

mGluR5 = molecular target: T2, mGluR5 (Rattus norvegicus, UniProt P31424); experiment: mGluR5 binding assay ([3H]-MPEP radioligand binding, rat brain membranes); conditions: 3 nM [3H]-MPEP, 1 h at 4° C., read-out: IC50, inhibition of [3H]-MPEP binding
T2 construct: positive allosteric modulators of mGluR5 receptors in native preparations; endogenous in cells; host or cells: primary cortical astrocytes from Sprague-Dawley rat embryos (E16-19)
T2 sequence (P31424 21-1203): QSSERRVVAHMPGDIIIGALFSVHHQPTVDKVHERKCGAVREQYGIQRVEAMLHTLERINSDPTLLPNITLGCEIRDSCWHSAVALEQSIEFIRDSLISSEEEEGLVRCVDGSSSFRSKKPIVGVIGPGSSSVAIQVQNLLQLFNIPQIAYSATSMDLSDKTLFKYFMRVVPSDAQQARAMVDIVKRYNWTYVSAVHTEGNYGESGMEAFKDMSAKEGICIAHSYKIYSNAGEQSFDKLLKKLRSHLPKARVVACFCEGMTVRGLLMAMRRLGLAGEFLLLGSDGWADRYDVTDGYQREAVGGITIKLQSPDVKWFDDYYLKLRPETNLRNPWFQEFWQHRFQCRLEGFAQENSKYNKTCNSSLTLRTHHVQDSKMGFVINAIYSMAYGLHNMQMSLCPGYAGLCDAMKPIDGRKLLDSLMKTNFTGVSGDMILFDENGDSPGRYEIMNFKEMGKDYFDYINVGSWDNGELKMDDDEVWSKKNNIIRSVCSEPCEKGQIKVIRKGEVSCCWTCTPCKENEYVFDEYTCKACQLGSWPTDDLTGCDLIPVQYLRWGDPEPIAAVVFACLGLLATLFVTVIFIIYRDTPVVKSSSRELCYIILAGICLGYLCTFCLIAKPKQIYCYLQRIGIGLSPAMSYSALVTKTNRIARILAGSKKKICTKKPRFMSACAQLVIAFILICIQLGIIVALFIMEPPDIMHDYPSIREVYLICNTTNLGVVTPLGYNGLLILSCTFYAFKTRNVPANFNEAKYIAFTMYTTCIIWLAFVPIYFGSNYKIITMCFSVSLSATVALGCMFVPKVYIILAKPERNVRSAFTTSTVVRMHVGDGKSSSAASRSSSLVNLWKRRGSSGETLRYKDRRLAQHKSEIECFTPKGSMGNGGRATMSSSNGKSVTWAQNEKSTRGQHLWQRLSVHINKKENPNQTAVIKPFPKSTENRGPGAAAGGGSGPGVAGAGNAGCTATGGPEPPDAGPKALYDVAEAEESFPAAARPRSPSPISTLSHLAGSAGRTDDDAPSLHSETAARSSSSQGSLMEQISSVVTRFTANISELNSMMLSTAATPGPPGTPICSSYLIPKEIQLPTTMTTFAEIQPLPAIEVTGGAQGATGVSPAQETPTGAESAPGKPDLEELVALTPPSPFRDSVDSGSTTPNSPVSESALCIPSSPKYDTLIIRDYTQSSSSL
Source text: Activity of compounds of the invention was examined following a radioligand binding technique using whole rat brain and tritiated 2-methyl-6-(phenylethynyl)-pyridine ([^3H]-MPEP) as a ligand following similar methods than those described in Gasparini et al. (2002) Bioorg. Med. Chem. Lett. 12:407-409 and in Anderson et al. (2002) J. Pharmacol. Exp. Ther. 303 (3) 1044-1051.
Cortices were dissected out from brains of 200-300 g Sprague-Dawley rats (Charles River Laboratories, L'Arbresle, France). Tissues were homogenized in 10 volumes (vol/wt) of ice-cold 50 mM HEPES-NaOH (pH 7.4) using a Polytron disrupter (Kinematica AG, Luzern, Switzerland) and centrifuged for 30 min at 40,000 g. (4° C.). […] Protein concentration was determined by the Bradford method (Bio-Rad protein assay, Reinach, Switzerland) with bovine serum albumin as standard.
Membranes were thawed and resuspended in binding buffer containing 20 mM HEPES-NaOH, 3 mM MgCl2, 3 mM CaCl2, 100 mM NaCl, pH 7.4. […] Radioactivity was determined by liquid scintillation spectrometry using a 96-well plate reader (TopCount, Perkin-Elmer, Downers Grove, USA).
The inhibition curves were generated using the Prism GraphPad program (Graph Pad Software Inc, San Diego, USA). […] The mean of IC50 obtained from at least three independent experiments of selected molecules performed in duplicate were calculated.

EC50 (rat mGluR5): < 1 µM
IC50 (mGluR5): < 30 µM
SMILES: O=C(c1ccc(F)cc1)N1CCC[C@H](c2nc(Cc3ccc(F)cc3)no2)C1 [Example 1, {(S)-3-[3-(4-Fluoro-benzyl)-[1,2,4]oxadiazol-5-yl]-piperidin-1-yl}-(4-fluoro-phenyl)-methanone]
